Source: paper PMC2628307 (Journal of the American Chemical Society, 2008)
Where “and” joins values, the source holds several entries; their conditions need not be identical. Identical values can stand only once. Counter-ions that a name gives are not always drawn. Like-named read-outs stand apart in the source and are kept apart here.

How the values were obtained:
[1] = physchem
[2] = target: T1, PP1γ (Homo sapiens, UniProt P36873); assay type: biochemical; conditions: for activity as PP1γ substrate: pH 8
T1 sequence (P36873 whole entry): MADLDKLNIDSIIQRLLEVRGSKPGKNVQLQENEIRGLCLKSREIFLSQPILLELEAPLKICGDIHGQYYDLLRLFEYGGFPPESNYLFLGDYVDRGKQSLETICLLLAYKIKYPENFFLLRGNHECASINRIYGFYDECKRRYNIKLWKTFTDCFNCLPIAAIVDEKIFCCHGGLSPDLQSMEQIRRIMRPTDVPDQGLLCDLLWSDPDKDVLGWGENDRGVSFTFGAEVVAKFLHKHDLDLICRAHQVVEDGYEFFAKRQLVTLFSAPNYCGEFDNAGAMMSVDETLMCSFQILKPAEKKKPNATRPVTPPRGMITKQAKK

[3] = target: PP1 (Homo sapiens, UniProt P36873); experiment: Kinetic isotope effects of PP1-catalyzed hydrolysis; assay type: biochemical; conditions: 25 °C, pH 7.0
Sequence of PP1 (Homo sapiens, UniProt P36873) (P36873 whole entry): as above

[4] = 25 °C; cited from earlier work
[5] = Dianion H2O attack, 95° C; cited from earlier work
[6] = target: PP1 H125A mutant (Homo sapiens, UniProt P36873, H125A); experiment: 4NPP hydrolysis by PP1 H125A mutant; assay type: biochemical
Sequence of PP1 H125A mutant (P36873 2-323 H125A): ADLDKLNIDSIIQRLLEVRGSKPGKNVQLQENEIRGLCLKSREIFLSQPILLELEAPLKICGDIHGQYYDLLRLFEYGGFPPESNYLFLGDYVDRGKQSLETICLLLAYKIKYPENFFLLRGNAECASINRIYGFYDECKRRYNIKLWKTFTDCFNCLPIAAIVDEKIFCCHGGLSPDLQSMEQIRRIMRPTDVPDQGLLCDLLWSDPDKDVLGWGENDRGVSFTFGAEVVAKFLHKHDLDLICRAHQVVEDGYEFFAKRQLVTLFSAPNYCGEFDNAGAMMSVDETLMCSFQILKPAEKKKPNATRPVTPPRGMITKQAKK

[7] = system: calcineurin; conditions: cited from earlier work
[8] = system: native PTPs YopH, VHR, and PTP1; conditions: cited from earlier work
[9] = target: T1, PP1γ
[10] = target: PP1; conditions: tighter binding peptide substrate; cited from earlier work
[11] = target: alkaline phosphatase; conditions: cited from earlier work

Structure (SMILES): O=[N+]([O-])c1ccc(O)cc1 [4-nitro, p-nitrophenol]
- pKa [1]: 7.01

Structure (SMILES): COP(=O)(O)Oc1ccc([N+](=O)[O-])cc1 [4-nitrophenyl methyl phosphate]
- activity as PP1γ substrate [2]: significant activity

Structure (SMILES): O=[N+]([O-])c1ccc(OS(=O)(=O)O)cc1 [4-nitrophenyl sulfate]
- activity as PP1γ substrate [2]: little activity

Structure (SMILES): O=[N+]([O-])c1ccc(OP(O)(O)=S)cc1 [4-nitrophenyl thiophosphate]
- activity as PP1γ substrate [2]: little activity

Structure (SMILES): O=[N+]([O-])c1ccc(OP(=O)(O)O)cc1 [4NPP, 4-nitrophenyl phosphate]
- ^18knonbridge [3]: 0.9959 (4)
- ^18knonbridge per atom [3]: 0.9986 (4)
- pseudo-first order rate constant of water reaction of the dianion [4]: 2e-09 s⁻¹
- ^15k [5]: 1.0028(2)
- ^18knonbridge [5]: 0.9994 (5)
- ^18knonbridge per atom [5]: 0.9998 (5)
- change in rate of hydrolysis with viscosigens ([2]; 20% sucrose or glycerol): no changes
- activity for 4NPP hydrolysis [6]: no detectable activity
- ^18(V/K)nonbridge ([7]; calcineurin with Mg^2+ at the active site): 0.9910
- ^18(V/K)nonbridge ([7]; calcineurin with Mn^+2 at the active site): 0.9942
- ^15k [8]: 0.9999-1.0001
- ^18knonbridge [8]: 0.9998-1.0003 and 1.0118-1.0152
- ^18knonbridge per atom [8]: 0.9999-01.0001

Structure (SMILES): O=P(O)(O)O [inorganic phosphate]
- Ki ([9]; pH 8, 4NPMP hydrolysis, compared with Ki for the 4NPP reaction): same Ki
- Ki ([9]; pH 8.0, 4NPP hydrolysis, competitive inhibition, equation 2): 1200 ± 200 µM
- Ki [10]: 1600 ± 900 µM
- Ki [11]: ~1 µM
